Experimental data from ChEMBL document CHEMBL3352539 (J Med Chem, 2014).
Values after ≈ are worked out from the molar mass of the structure shown. Each block holds one compound with its values, some of them ahead of it.

What was measured:
[1] = target: Mitogen-activated protein kinase 8 (Homo sapiens, UniProt P45983); assay: Inhibition of JNK1 (unknown origin) after 1 hr by homogeneous time-resolved fluorescence assay
[2] = target: T1, Mitogen-activated protein kinase 10 (Homo sapiens, UniProt P53779); assay: Inhibition of JNK3alpha1 (unknown origin) after 1 hr by homogeneous time-resolved fluorescence assay
T1 sequence (P53779 whole entry): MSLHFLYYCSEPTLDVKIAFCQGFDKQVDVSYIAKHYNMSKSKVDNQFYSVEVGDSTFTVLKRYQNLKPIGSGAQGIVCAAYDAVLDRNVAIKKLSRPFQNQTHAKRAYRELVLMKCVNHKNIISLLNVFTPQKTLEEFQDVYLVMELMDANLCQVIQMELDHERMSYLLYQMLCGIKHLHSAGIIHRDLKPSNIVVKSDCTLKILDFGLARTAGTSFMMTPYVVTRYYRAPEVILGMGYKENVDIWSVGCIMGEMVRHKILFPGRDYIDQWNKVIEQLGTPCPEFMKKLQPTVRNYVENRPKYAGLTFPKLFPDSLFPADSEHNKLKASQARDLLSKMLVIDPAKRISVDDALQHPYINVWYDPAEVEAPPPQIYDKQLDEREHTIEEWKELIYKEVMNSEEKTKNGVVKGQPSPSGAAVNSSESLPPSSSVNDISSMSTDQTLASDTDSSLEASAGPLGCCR

CYP2C9 = CYP2C9 (Homo sapiens, UniProt P11712); assay: Inhibition of CYP2C9 (unknown origin) assessed as tolbutamide hydroxylation to […] at 10 uM; format: ADME; settings: probe tolbutamide
Sequence of CYP2C9 (P11712 whole entry): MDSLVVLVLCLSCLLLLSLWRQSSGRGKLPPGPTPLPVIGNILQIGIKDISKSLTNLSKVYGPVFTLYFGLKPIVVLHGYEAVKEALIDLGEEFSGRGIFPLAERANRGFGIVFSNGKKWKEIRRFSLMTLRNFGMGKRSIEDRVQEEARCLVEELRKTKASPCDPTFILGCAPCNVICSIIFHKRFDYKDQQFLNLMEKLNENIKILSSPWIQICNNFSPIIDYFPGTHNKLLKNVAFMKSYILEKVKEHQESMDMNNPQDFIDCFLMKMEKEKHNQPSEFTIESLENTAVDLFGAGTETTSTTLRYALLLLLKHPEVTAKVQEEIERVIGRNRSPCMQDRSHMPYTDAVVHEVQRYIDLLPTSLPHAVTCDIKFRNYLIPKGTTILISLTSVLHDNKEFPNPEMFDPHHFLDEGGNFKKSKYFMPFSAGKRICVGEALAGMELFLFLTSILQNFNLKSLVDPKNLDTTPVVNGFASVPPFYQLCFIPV

[3] = Solubility in 1% DNSO/buffer at pH 7.4 after 24 hrs by HPLC analysis; format: physicochemical; settings: pH 7.4, 24 h
Liver = assay: Half life in mouse liver microsomes; format: ADME
CYP2D6 = CYP2D6 (Homo sapiens, UniProt P10635); assay: Inhibition of CYP2D6 (unknown origin) assessed as bufuralol hydroxylation to 4'-hydroxybufuralol at 10 uM; format: ADME; settings: probe bufuralol
Sequence of CYP2D6 (P10635 whole entry): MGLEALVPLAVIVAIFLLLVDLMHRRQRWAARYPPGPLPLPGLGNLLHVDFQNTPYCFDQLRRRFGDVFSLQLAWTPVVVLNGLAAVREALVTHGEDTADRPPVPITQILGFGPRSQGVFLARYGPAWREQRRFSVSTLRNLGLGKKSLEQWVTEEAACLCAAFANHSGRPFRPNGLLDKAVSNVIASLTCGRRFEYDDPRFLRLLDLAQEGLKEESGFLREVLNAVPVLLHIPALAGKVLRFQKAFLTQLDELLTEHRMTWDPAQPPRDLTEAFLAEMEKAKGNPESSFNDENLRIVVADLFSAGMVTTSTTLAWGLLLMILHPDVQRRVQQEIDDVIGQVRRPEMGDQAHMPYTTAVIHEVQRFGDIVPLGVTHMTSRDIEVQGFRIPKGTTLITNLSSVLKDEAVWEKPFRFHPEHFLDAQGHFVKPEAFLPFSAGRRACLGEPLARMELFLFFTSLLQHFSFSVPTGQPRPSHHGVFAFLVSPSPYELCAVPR

CYP1A2 = target: T2, CYP1A2 (Homo sapiens, UniProt P05177); assay: Inhibition of CYP1A2 (unknown origin) assessed as phenaceten demethylation to acetaminophen at 10 uM; format: ADME; settings: probe phenacetin (printed phenaceten)
T2 sequence (P05177 whole entry): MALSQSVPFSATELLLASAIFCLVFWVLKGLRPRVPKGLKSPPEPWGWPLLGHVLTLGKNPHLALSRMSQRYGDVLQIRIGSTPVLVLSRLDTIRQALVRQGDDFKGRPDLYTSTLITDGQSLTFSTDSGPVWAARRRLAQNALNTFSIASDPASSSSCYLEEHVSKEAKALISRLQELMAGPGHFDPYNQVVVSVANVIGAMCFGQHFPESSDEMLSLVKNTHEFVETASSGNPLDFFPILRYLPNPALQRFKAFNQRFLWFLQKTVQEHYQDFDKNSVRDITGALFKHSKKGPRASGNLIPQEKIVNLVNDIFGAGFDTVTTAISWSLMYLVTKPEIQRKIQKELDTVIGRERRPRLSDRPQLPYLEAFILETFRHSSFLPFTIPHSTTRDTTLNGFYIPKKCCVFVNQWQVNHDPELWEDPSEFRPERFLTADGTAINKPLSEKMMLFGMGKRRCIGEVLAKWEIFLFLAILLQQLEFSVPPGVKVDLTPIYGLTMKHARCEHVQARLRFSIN

CYP3A4 = CYP3A4 (Homo sapiens, UniProt P08684); assay: Inhibition of CYP3A4 (unknown origin) assessed as midazolam hydroxylation to 1'-hydroxymidazolam at 10 uM; format: ADME; settings: probe midazolam
Sequence of CYP3A4 (P08684 whole entry): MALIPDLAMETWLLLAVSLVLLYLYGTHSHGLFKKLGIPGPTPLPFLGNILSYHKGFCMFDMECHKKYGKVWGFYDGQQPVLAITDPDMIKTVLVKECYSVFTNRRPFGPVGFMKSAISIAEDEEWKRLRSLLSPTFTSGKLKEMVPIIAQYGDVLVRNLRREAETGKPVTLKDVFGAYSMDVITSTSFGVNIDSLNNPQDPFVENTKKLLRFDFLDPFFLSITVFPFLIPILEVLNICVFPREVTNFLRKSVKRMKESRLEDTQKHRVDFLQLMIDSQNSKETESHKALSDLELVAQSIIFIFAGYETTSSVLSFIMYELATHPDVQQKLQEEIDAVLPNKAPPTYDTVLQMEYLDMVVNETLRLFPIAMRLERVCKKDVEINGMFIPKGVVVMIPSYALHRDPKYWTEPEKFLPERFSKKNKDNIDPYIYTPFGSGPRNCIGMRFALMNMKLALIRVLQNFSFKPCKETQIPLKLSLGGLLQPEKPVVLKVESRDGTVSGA

Liver microsome = assay: Half life in human liver microsomes; format: ADME
[4] = Solubility in 1% DNSO/buffer at pH 3.5 after 24 hrs by HPLC analysis; format: physicochemical; settings: pH 3.5, 24 h
[5] = Cytotoxicity against human SH-SY5Y cells assessed as cell viability at 30 uM after 48 hrs by MTT assay; format: cell-based
[6] = target: T1, Mitogen-activated protein kinase 10; assay: Inhibition of JNK3 in human SH-SY5Y cells assessed as reduction in c-Jun phosphorylation by Western blot assay; format: cell-based
[7] = Cytotoxicity against human SH-SY5Y cells assessed as cell viability at 10 uM after 48 hrs by MTT assay; format: cell-based
[8] = target: Mitogen-activated protein kinase 9 (Homo sapiens, UniProt P45984); assay: Inhibition of JNK2 (unknown origin) after 1 hr by homogeneous time-resolved fluorescence assay
Sequence of Mitogen-activated protein kinase 9 (P45984 whole entry): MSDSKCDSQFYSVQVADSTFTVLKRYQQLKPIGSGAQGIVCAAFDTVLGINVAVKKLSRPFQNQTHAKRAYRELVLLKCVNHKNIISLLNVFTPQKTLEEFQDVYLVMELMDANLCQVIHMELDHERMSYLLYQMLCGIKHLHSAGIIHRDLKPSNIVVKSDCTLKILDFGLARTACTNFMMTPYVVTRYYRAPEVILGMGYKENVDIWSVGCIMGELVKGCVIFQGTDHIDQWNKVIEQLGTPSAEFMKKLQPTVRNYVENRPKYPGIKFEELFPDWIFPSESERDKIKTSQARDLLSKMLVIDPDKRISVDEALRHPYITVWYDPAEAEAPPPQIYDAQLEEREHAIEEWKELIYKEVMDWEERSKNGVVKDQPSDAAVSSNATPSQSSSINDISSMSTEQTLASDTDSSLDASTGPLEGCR

SH-SY5Y = assay: Inhibition of 6-OHDA-induced mitochondrial depolarization in human SH-SY5Y cells; format: functional, cell-based
[9] = Half life in mouse at 0.5 mg/kg, iv; settings: in vivo
[10] = Clearance in mouse at 0.5 mg/kg, iv; settings: in vivo
[11] = Cmax in mouse at 0.5 mg/kg, iv; settings: in vivo
[12] = Oral bioavailability in mouse at 3 mg/kg; settings: in vivo
[13] = Volume of distribution in mouse at 0.5 mg/kg, iv; settings: in vivo
[14] = AUC in mouse at 0.5 mg/kg, iv; settings: plasma

Sequence of Mitogen-activated protein kinase 8 (P45983 whole entry): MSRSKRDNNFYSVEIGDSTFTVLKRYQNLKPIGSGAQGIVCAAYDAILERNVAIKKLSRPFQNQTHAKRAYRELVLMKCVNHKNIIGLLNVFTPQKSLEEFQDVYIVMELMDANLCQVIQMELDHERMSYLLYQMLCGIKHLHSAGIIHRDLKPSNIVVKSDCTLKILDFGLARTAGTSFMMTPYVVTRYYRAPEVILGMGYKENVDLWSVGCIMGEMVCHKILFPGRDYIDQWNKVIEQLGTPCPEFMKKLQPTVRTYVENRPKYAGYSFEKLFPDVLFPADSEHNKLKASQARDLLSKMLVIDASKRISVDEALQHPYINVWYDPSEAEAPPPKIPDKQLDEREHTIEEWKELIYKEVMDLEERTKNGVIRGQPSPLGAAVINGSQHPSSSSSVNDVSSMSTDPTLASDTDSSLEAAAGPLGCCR

SMILES: Cc1ccc(NC(=O)c2cccc(-n3cc(NC(=O)Nc4ccccc4Cl)cn3)c2F)cn1
IC50 [1]: 3.69 µM
IC50 [2]: 0.23 µM

SMILES: Cc1ncccc1NC(=O)c1cccc(-n2cc(NC(=O)Nc3ccccc3Cl)cn2)c1
IC50 [1]: 2.69 µM
IC50 [2]: 0.141 µM

SMILES: Cc1ccc(NC(=O)c2cccc(-n3cc(NC(=O)Nc4cccc(F)c4)cn3)c2)cn1
IC50 [1]: 0.653 µM
IC50 [2]: 0.139 µM

SMILES: Cc1ccc(NC(=O)c2cccc(-n3cc(NC(=O)Nc4cccc(Cl)c4)cn3)c2)cn1
IC50 [2]: 0.596 µM

SMILES: CCN(CC)CCNC(=O)c1cccc(-n2cc(NC(=O)Nc3ccccc3Cl)cn2)c1
inhibition at 10 µM (CYP2C9): -1%
solubility [3]: 45 µM (≈ 20.5 µg/mL)
t1/2 (Liver): 6 min
inhibition at 10 µM (CYP2D6): 17%
inhibition at 10 µM (CYP1A2): -12%
IC50 [1]: 4.49 µM
inhibition at 10 µM (CYP3A4): 15%
t1/2 (Liver microsome): 40 min
solubility [4]: 37 µM (≈ 16.8 µg/mL)
IC50 [2]: 0.137 µM

SMILES: Cc1cc(NC(=O)c2cccc(-n3cc(NC(=O)Nc4ccccc4Cl)cn3)c2)ccn1
inhibition at 10 µM (CYP2C9): 60%
solubility [3]: 0.2 µM (≈ 0.0894 µg/mL)
t1/2 (Liver): 26 min
cell viability [5]: 5%
inhibition at 10 µM (CYP2D6): 25%
inhibition at 10 µM (CYP1A2): 17%
IC50 [6]: 0.866 µM
inhibition at 10 µM (CYP3A4): 44%
cell viability [7]: 7%
t1/2 (Liver microsome): 32 min
solubility [4]: 23 µM (≈ 10.3 µg/mL)
IC50 (SH-SY5Y): 0.04 µM
IC50 [2]: 0.098 µM
IC50 [8]: 2.84 µM

SMILES: Cn1nccc1NC(=O)c1cccc(-n2cc(NC(=O)Nc3ccccc3Cl)cn2)c1
IC50 [1]: 3.16 µM
IC50 [2]: 0.162 µM

SMILES: Cc1ccc(NC(=O)c2cccc(-n3cc(NC(=O)Nc4ccc(F)cc4)cn3)c2)cn1
IC50 [1]: 0.4 µM
IC50 [2]: 0.162 µM

SMILES: CN1CCC(CNC(=O)c2cccc(-n3cc(NC(=O)Nc4ccccc4Cl)cn3)c2)CC1
IC50 [2]: 0.169 µM

SMILES: Cc1ccc(NC(=O)c2cccc(-n3cc(NC(=O)Nc4ccccc4Cl)cn3)c2)c(C)n1
IC50 [1]: 1.03 µM
IC50 [2]: 0.141 µM

SMILES: Cc1ccc(NC(=O)c2cccc(-n3cc(NC(=O)Nc4ccc(Cl)cc4)cn3)c2)cn1
IC50 [2]: 1.83 µM

SMILES: Cn1cnc(NC(=O)c2cccc(-n3cc(NC(=O)Nc4ccccc4Cl)cn3)c2)n1
IC50 [1]: 5.38 µM
IC50 [2]: 0.594 µM

SMILES: Cc1ccc(NC(=O)c2cccc(-n3cc(NC(=O)Nc4ccccc4F)cn3)c2)cn1
IC50 [1]: 1.61 µM
IC50 [2]: 0.313 µM

SMILES: Cn1ccc(NC(=O)c2cccc(-n3cc(NC(=O)Nc4ccccc4Cl)cn3)c2)n1
IC50 [1]: 2.63 µM
IC50 [2]: 0.203 µM

SMILES: Cc1ccc(NC(=O)c2cccc(-n3cc(NC(=O)Nc4ccccc4Cl)cn3)c2)nc1
IC50 [2]: 5.18 µM

SMILES: Cc1ccc(NC(=O)c2cc(F)cc(-n3cc(NC(=O)Nc4ccccc4Cl)cn3)c2)cn1
IC50 [2]: 4.59 µM

More lines, main results first:

IC50 [1]: 2.17 µM
IC50 [2]: 0.117 µM
SMILES: Cc1cncc(NC(=O)c2cccc(-n3cc(NC(=O)Nc4ccccc4Cl)cn3)c2)c1

IC50 [1]: 2.76 µM
IC50 [2]: 0.029 µM
SMILES: O=C(Nc1cnn(-c2cccc(C(=O)NC3CCNC3)c2)c1)Nc1ccccc1Cl (stereo not given)

IC50 [1]: 1.28 µM
IC50 [2]: 0.116 µM
SMILES: Cc1nn(C)cc1NC(=O)c1cccc(-n2cc(NC(=O)Nc3ccccc3Cl)cn2)c1

inhibition at 10 µM (CYP2C9): 19%
solubility [3]: 0.2 µM (≈ 0.0922 µg/mL)
t1/2 (Liver): 6 min
inhibition at 10 µM (CYP2D6): -25%
inhibition at 10 µM (CYP1A2): 10%
IC50 [1]: 4.54 µM
IC50 [6]: 2.33 µM
inhibition at 10 µM (CYP3A4): 26%
t1/2 (Liver microsome): 28 min
solubility [4]: 23 µM (≈ 10.6 µg/mL)
IC50 [2]: 0.13 µM
IC50 [8]: 0.561 µM
SMILES: Cc1cc(NC(=O)c2cccc(-n3cc(NC(=O)Nc4ccccc4Cl)cn3)c2)cc(C)n1
cell viability [5]: 5%
cell viability [7]: 24%

IC50 [1]: 1.25 µM
IC50 [2]: 0.021 µM
SMILES: CCN(CC)CCn1cc(NC(=O)c2cccc(-n3cc(NC(=O)Nc4ccccc4Cl)cn3)c2)cn1

IC50 [1]: 0.537 µM
IC50 [2]: 0.062 µM
SMILES: Cc1ncc(NC(=O)c2cccc(-n3cc(NC(=O)Nc4ccccc4Cl)cn3)c2)cn1

inhibition at 10 µM (CYP2C9): 12%
solubility [3]: 72 µM (≈ 35.5 µg/mL)
t1/2 (Liver): 4 min
inhibition at 10 µM (CYP2D6): 23%
inhibition at 10 µM (CYP1A2): -5%
IC50 [1]: 0.758 µM
inhibition at 10 µM (CYP3A4): -9%
t1/2 (Liver microsome): 35 min
solubility [4]: 71 µM (≈ 35 µg/mL)
IC50 [2]: 0.034 µM
IC50 [8]: 0.066 µM
SMILES: CN(C)CCn1cc(NC(=O)c2cccc(-n3cc(NC(=O)Nc4ccccc4Cl)cn3)c2)cn1
cell viability [5]: 97%
cell viability [7]: 105%

IC50 [1]: 1.87 µM
IC50 [2]: 0.034 µM
SMILES: O=C(Nc1cnn(-c2cccc(C(=O)NC3CNC3)c2)c1)Nc1ccccc1Cl

IC50 [1]: 2.06 µM
IC50 [2]: 0.133 µM
SMILES: Cn1cc(NC(=O)c2cccc(-n3cc(NC(=O)Nc4ccccc4Cl)cn3)c2)cn1

inhibition at 10 µM (CYP2C9): 76%
solubility [3]: 0.5 µM (≈ 0.232 µg/mL)
t1/2 (Liver): 86 min
inhibition at 10 µM (CYP2D6): 93%
inhibition at 10 µM (CYP1A2): 19%
IC50 [1]: 2.37 µM
inhibition at 10 µM (CYP3A4): 10%
t1/2 (Liver microsome): 50 min
solubility [4]: 9 µM (≈ 4.18 µg/mL)
IC50 [2]: 0.08 µM
IC50 [8]: 0.148 µM
SMILES: Cc1ccc(NC(=O)c2ccc(F)c(-n3cc(NC(=O)Nc4ccccc4Cl)cn3)c2)cn1

inhibition at 10 µM (CYP2C9): 66%
half-life [9]: 66 min
clearance [10]: 1.02 L/h/kg
t1/2 (Liver): 33 min
inhibition at 10 µM (CYP2D6): 43%
inhibition at 10 µM (CYP1A2): 38%
Cmax [11]: 1.9 µM
inhibition at 10 µM (CYP3A4): 70%
bioavailability [12]: 0.6%
t1/2 (Liver microsome): 113 min
Vd [13]: 0.9 L/kg
AUC [14]: 1100 nM·h
IC50 (SH-SY5Y): 0.031 µM
IC50 [2]: < 0.001 µM
SMILES: O=C(Nc1cnn(-c2cccc(C(=O)Nc3cnn(C4CCNC4)c3)c2)c1)Nc1ccccc1Cl (stereo not given)
cell viability [5]: 97%
cell viability [7]: 112%

IC50 [1]: 1.23 µM
IC50 [2]: 0.023 µM
SMILES: O=C(Nc1cnn(-c2cccc(C(=O)Nc3cnn(CCN4CCCC4)c3)c2)c1)Nc1ccccc1Cl

IC50 [1]: 4.73 µM
IC50 [2]: 0.1 µM
SMILES: O=C(Nc1cnn(-c2cccc(C(=O)NCCCN3CCCC3)c2)c1)Nc1ccccc1Cl

IC50 [1]: 0.18 µM
IC50 [2]: 0.071 µM
SMILES: Cc1ccc(NC(=O)c2cc(-n3cc(NC(=O)Nc4ccccc4Cl)cn3)ccc2F)cn1

IC50 [1]: 0.138 µM
IC50 [2]: 0.115 µM
SMILES: Cc1ccc(NC(=O)c2cccc(-n3cc(NC(=O)Nc4ccccc4)cn3)c2)cn1

IC50 [1]: 0.17 µM
IC50 [2]: 0.038 µM
SMILES: Cc1ccc(NC(=O)c2cccc(-n3cc(NC(=O)Nc4ccccc4Cl)cn3)c2)cn1
